Patent publication US10221153B2, “Dibenzothiophene compounds” (Saint Louis University, priority 2017, dated 2019)
“Also recorded” adds a separate entry of the source. Like-named read-outs stand apart in the source and are kept apart here.

Columns and labels:
[1] = Photophysical analysis: absorption, excitation and emission at 10 μM (Example 5); type: physicochemical; conditions: for λabs / λem / Stokes Shift: acetonitrile at 10 μM; for λex (excitation wavelength): acetonitrile at 10 μM (footnotes a,b); for Stokes Shift: calculated from excitation wavelength; for λex: footnotes a,g: acetonitrile at 10 μM / EtOH at 10 μM
Description: (§1) All data were collected on a SHIMAZDU Spectrofluorometer RF-5301PC. Solutions of the respective compounds were prepared in acetonitrile at approximately 1 mM concentration. Solutions (4 mL) were added to a freshly washed quartz cuvette for measurements. The excitation wavelength was varied between 270 nm and 390 nm in 20 nm intervals until the greatest intensity emission was detected. The emission spectra ranges started at 20 nm to the red of the chosen excitation wavelength up to 780 nm. Scan speed was set at “Very Fast” with both the slit widths set to 1.5 mm.
(§2) All data were collected on a SHIMAZDU Spectrofluorometer RF-5301PC. Solutions of the respective compounds were prepared in acetonitrile at approximately 1 mM concentration. Solutions (4 mL) were added to a freshly washed quartz cuvette for measurements. The monitored emission wavelength was set using the high intensity emission from the respective molecule. The scanning range was from 220 nm through 770 nm. Scan speed was set at “Very Fast” with both the slit widths set to 1.5 mm.
Excitation/emission data for compounds 6b, 7b, 8b, 15b, 16b, and 17b were collected using the methods described in Example 3 but using a lower concentration of acetonitrile (10 μM). Compounds 15b, 16b and 17b and their parent molecules (6b, 7b and 8b) all luminesce in the visible range and their optical properties are described in Table 4. […] The wavelength of λex for the excitation scan corresponds to excitation to S1, which leads to emission. This λex for all the molecules were red shifted, or shifted to the direction of longer wavelengths, from the peak absorption by an average 40 nm.

[2] = system: HeLa human cervical carcinoma cell line; assay: Cell imaging of HeLa cells incubated with compound, fluorescence microscopy; type: cell-based; conditions: 1 μM; for tracking with chromosomes during mitosis / luminescence intensity in cells / location of luminescence in the cell: 120 min; for luminescence intensity in cells: excitation 350 nm, emission approximately 400 nm; for location of luminescence in the cell: merged bright field and UV images
Description: HeLa human cervical carcinoma cell line was obtained from ATCC (Manassas, Va.). The cells were cultured in a humidified incubator at 5% CO2 and 37° C. The cell line was grown in D-MEM (Invitrogen) high glucose supplemented with 10.0% fetal bovine serum (Invitrogen, Carlsbad, Calif.) and 1.0% Penicillin/Streptomycin (Invitrogen, Carlsbad, Calif.) for an environment suitable for cell growth. The culture was sub-cultured every three days to maintain normal cell growth.
Sterile glass PDL coated #1.5 cover slips (NeuVitro), pre-incubated with culture medium, were placed in sterile 6-well plates. Single cell suspension of the HeLa (cervical cancer cells taken from patient Henrietta Lacks) cell line was prepared at 5×10^4 cells ml^−1 in the appropriate medium. Volumes of 2.0 mL were pipetted into each of the wells containing the coverslips. The 6-well plate was left overnight at 37.0° C. in a 5.0% CO2 incubator. Following the overnight incubation, the plate was aspirated dry and then fresh culture medium, containing the drug (at 1.0 μM and 0.10% DMSO) in a volume of 2.0 mL, was gently pipetted onto the cell monolayers attached to the glass cover slips. Cells on the cover slips were exposed to the drug for approximately 2 hours. Cells were washed with PBS and treated with 4.0% paraformaldehyde solution prepared in PBS, incubated for 30 minutes at room temperature for […]. Several washes with PBS were completed to ensure excess solution was rinsed away. Glass cover slips were removed and mounted on slides with ProLong Gold Antifade Mountant (ThermoFisher Scientific). The specimen was dried for several minutes and sealed with clear nail polish before visualized under a microscope
Cell Image Captures: All images were captured with a Leica DM 4000 B microscope with a DFC3000G camera (Leica Microsystems, Germany) and 63× oil immersion lens. HeLa cells were staged according to the method above. Leica LASX Core Software (Leica Microsystems, Germany) was used to acquire the images.
Stained cells were clearly observed by exciting the cells with a broadly emitting lamp using DAPI filter set. Luminescence was observed within the cell bodies of the HeLa cells upon excitation of the UV wavelengths. The excitation wavelength was 350 nm and the emission wavelength was approximately 400 nm. FIG. 14 depicts representative images of HeLa cervical cancer cell lines incubated with Compounds 16b, 15b, and 17b (1 μM) for 120 min. Bright field images of cells incubated with compounds 16b, 15b, and 17b are shown in Panels A, D, and G, respectively. Luminescence from each compound (16b, 15b, and 17b) is shown in Panels B, E, and H, respectively, with UV laser radiation.

HeLa cells = assay: Anti-proliferation (MTS) assay, HeLa cells, 72 hours; type: cell-based, human; conditions: 1 nM to 100 μM
Description: To determine whether long-term exposure to each compound could be toxic to cells, Hela cells were treated with varying concentrations of Compounds 16b, 15b and 17b for 72 hours. An anti-proliferation protocol was carried out by testing chosen compounds on the growth of the human cervical cancer cell lines. HeLa cells were cultured in their respective media supplemented with 10.0% FBS (fetal bovine serum) and 1.0% Pen/Strep. Cells (1,000 cells/100 μL per well) were plated in a 96-well culture plate (TC treated, Greiner) and incubated for 24 h. 50 μL (DMSO <1%) of the compound at final concentrations 100 μM, 10 μM, 1 μM, 100 nM, 10 nM, and 1 nM were added to the appropriate wells. Triplicates wells were performed for each compound, on three identical plates.
After incubation of the cells, at 37° C. in a humidified atmosphere of 5% CO2 for 72 hours, the cells were stained and incubated with MTS (3-(4,5-dimethylthiazol-2-yl)-5-(3-carboxymethoxyphenyl)-2-(4-sulfophenyl)-2H-tetrazolium) reagent in the presence of PMS (phenazine methosulfate) reagent for 2 hours to determine cell viability. An MTS assay is based on the reduction of the MTS tetrazolium compound by viable cells to generate a colored formazan dye that is soluble in cell culture media. The absorbance of each well was taken at 490 nm using a multimode plate reader (FlexStation 3, Molecular Devices, San Diego, Calif.). GraphPad Prism was used to analyze transposed data to determine the percent viability. […] Each compound was tested in at least triplicate.

[3] = Photophysical analysis: absorption, excitation and emission at 10 μM (Example 5); type: physicochemical; conditions: EtOH at 10 μM
[4] = Quantum yield by single-point method; conditions: single-point method in EtOH
[5] = Emission and excitation scans on spectrofluorometer, approximately 1 mM in acetonitrile (Example 3); type: physicochemical
Description: General Procedure for Emission and Excitation Data Collection:
as §1, §2

[6] = cell footnote a: acetonitrile at 10 μM

| λabs [1] [nm] | λem [1] [nm] | λex (excitation wavelength) [1] [nm] | Stokes Shift [1] [nm] | log εex (molar extinction coefficient at excitation wavelength) [1, 6] | log εmax (maximum molar extinction coefficient) [1, 6] | λex [1] [nm] | λem [3] [nm] | φ (quantum yield) [4] | log εex (molar extinction coefficient at excitation wavelength) [1] [M^−1 cm^−1] | log εmax (maximum molar extinction coefficient) [3] [M^−1 cm^−1] | emission wavelength (emitted at) [5] | excitation wavelength (excited at) [5] [nm] | Structure (SMILES) | tracking with chromosomes during mitosis [2] | luminescence intensity in cells [2] | location of luminescence in the cell [2] | cytotoxicity / decrease in cell viability (HeLa cells) | effect on cell morphology ([2]; FIG. 14 panel G) | luminescence colour [5] |
| --- | --- | --- | --- | --- | --- | --- | --- | --- | --- | --- | --- | --- | --- | --- | --- | --- | --- | --- | --- |
| 246 | 412 | 287 | 125 | 2.48^a M^−1 cm^−1 | 4.75^a M^−1 cm^−1 | 284 | 422 | 0.29 | – | – | – | – | O=S(=O)([O-])c1ccc2c(c1)-c1cc(-c3ccc(-c4ccccc4)cc3)ccc1S2(=O)=O.[Na+] [Compound 16b, sodium 8-([1,1′-biphenyl]-4-yl)dibenzo[b,d]thiophene-2-sulfonate 5,5-dioxide] | track with chromosomes during mitosis | intense luminescence | luminescence is clearly identified within the nucleus of the cell | begins to show some degree of toxicity at 100 μM; also recorded: low cytotoxicity | – | – |
| 250 | 421 | 274 | 147 | – | – | 274 | 428 | 0.55 | 4.36 | 4.67 | – | – | O=S(=O)([O-])c1ccc2c(c1)-c1cc(-c3cccc4ccccc34)ccc1S2(=O)=O.[Na+] [Compound 17b, sodium 8-(naphthalen-1-yl)dibenzo[b,d]thiophene-2-sulfonate 5,5-dioxide] | – | slight luminescence | luminescence is clearly identified within the nucleus of the cell | do not show any decrease in cell viability at any concentration tested; also recorded: no observed cytotoxicity | seemed to influence the morphology of HeLa cells | – |
| 243 | 485 | 283 | 202 | – | – | 286 | 478 | 0.59 | 4.17 | 4.59 | 475 nm | 366 | O=S(=O)(Oc1ccccc1)c1ccc2c(c1)-c1cc(-c3ccc(-c4ccccc4)cc3)ccc1S2(=O)=O [Compound 8b, phenyl 8-([1,1′-biphenyl]-4-yl)dibenzo[b,d]thiophene-2-sulfonate 5,5-dioxide] | – | – | – | – | – | luminesced in either a deep blue or near blue wavelength |

Second part, the molecule before the results:

| Structure (SMILES) | λabs [1] [nm] | λem [1] [nm] | λex (excitation wavelength) [1] [nm] | Stokes Shift [1] [nm] | log εex (molar extinction coefficient at excitation wavelength) [1, 6] | log εmax (maximum molar extinction coefficient) [1, 6] | λex [1] [nm] | λem [3] [nm] | φ (quantum yield) [4] | log εex (molar extinction coefficient at excitation wavelength) [1] [M^−1 cm^−1] | log εmax (maximum molar extinction coefficient) [3] [M^−1 cm^−1] | emission wavelength (emitted at) [5] | excitation wavelength (excited at) [5] [nm] | tracking with chromosomes during mitosis [2] | luminescence intensity in cells [2] | location of luminescence in the cell [2] | cytotoxicity / decrease in cell viability (HeLa cells) | effect on cell morphology ([2]; FIG. 14 panel G) | luminescence colour [5] |
| --- | --- | --- | --- | --- | --- | --- | --- | --- | --- | --- | --- | --- | --- | --- | --- | --- | --- | --- | --- |
| O=S(=O)([O-])c1ccc2c(c1)-c1cc(-c3ccccc3)ccc1S2(=O)=O.[Na+] [Compound 15b, sodium 8-phenyldibenzo[b,d]thiophene-2-sulfonate 5,5-dioxide] | 248 | 371 | 268 | 103 | – | – | 274 | 380 | 0.07 | 4.4 | 4.67 | – | – | track with chromosomes during mitosis | intense luminescence | luminescence is clearly identified within the nucleus of the cell | do not show any decrease in cell viability at any concentration tested; also recorded: low cytotoxicity | – | – |
| O=S(=O)(Oc1ccccc1)c1ccc2c(c1)c1cc(-c3cccc4ccccc34)ccc1[s+]2[O-] (stereo not shown) [Compound 7a, phenyl 8-(naphthalen-1-yl)dibenzo[b,d]thiophene-2-sulfonate 5-oxide] | – | – | – | – | – | – | – | – | – | – | – | – | – | – | – | – | – | – | luminesced in either a deep blue or near blue wavelength |
| O=S(=O)(Oc1ccccc1)c1ccc2c(c1)c1cc(-c3ccc(-c4ccccc4)cc3)ccc1[s+]2[O-] (stereo not shown) [Compound 8a, phenyl 8-([1,1′-biphenyl]-4-yl)dibenzo[b,d]thiophene-2-sulfonate 5-oxide] | – | – | – | – | – | – | – | – | – | – | – | 477 nm | 365 | – | – | – | – | – | luminesced in either a deep blue or near blue wavelength |
| O=S(=O)(Oc1ccccc1)c1ccc2c(c1)-c1cc(-c3ccccc3)ccc1S2(=O)=O [Compound 6b, phenyl 8-phenyldibenzo[b,d]thiophene-2-sulfonate 5,5-dioxide] | 238 | 426 | 274 | 152 | – | – | 275 | 434 | 0.05 | 4.45 | 4.69 | about 437 nm | 344 | – | – | – | – | – | luminesced in either a deep blue or near blue wavelength |
| O=S(=O)(Oc1ccccc1)c1ccc2c(c1)-c1cc(-c3cccc4ccccc34)ccc1S2(=O)=O [Compound 7b, phenyl 8-(naphthalen-1-yl)dibenzo[b,d]thiophene-2-sulfonate 5,5-dioxide] | 243 | 492 | 274 | 218 | – | – | 274 | 486 | 0.15 | 4.51 | 4.79 | 499 nm | 367 | – | – | – | – | – | luminesced in either a deep blue or near blue wavelength |
